# Experimental data from patent US8822449B2, “Substituted aminoindanes and analogs thereof, and the pharmaceutical use thereof” (Sanofi, priority 2008, dated 2014).
# Biological target: T1, sodium-proton exchanger of subtype 3 (NHE3) (Homo sapiens, UniProt P48764)
# T1 construct: expressed in transfected cells
# T1 sequence (P48764 26-834): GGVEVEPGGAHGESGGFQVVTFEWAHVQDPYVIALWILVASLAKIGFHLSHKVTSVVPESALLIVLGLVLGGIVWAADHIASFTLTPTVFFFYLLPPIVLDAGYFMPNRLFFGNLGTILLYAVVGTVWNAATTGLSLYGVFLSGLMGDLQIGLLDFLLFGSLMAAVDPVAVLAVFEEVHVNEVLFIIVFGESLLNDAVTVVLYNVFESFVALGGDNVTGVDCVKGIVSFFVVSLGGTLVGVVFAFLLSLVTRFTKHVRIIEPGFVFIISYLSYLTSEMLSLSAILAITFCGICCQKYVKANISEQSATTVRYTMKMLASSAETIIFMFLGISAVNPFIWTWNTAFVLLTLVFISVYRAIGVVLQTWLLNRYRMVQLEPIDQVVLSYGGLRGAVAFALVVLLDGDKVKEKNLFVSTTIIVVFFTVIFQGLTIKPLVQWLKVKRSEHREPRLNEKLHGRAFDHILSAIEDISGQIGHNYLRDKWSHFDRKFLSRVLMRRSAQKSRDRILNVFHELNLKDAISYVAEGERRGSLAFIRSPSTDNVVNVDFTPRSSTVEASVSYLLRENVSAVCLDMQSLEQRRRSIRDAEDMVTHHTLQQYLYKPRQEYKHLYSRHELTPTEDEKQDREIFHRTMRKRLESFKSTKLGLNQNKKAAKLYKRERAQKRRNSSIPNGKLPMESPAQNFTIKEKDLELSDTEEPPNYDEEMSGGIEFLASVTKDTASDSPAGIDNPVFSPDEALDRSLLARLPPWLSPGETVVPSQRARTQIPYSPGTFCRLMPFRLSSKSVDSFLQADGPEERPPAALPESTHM
# Experiment: Recovery of intracellular pH (pHi) after acidification in LAP1 cells stably expressing NHE3 (BCECF fluorescence, FLIPR)
# Format: cell-based
# Settings: LAP1 cells stably expressing NHE3; pH recovery after acidification; range 1 is % inhibition at 10 μM; read-out: Activity range (inhibitory effect on NHE3)
# Procedure: In this assay, the recovery of the intracellular pH (pHi) of LAP1 cells which stably express the sodium-proton exchanger of subtype 3 (NHE3) after acidification was determined. The recovery occurs even under bicarbonate-free conditions with functional NHE3. To this end, the pHi was determined using the pH-sensitive fluorescent dye BCECF (Molecular Probes, Eugene, Oreg., USA, employing the precursors BCECF-AM). The cells were initially incubated with BCECF (5 μM BCECF-AM) in NH4Cl buffer (NH4Cl buffer: 115 mM cholineCl, 20 mM NH4Cl, 5 mM KCl, 1 mM CaCl2, 1 mM MgCl2, 20 mM Hepes, 5 mM glucose, a pH of 7.4 was adjusted with 1 M KOH). The intracellular acidification was induced by washing the cells incubated in NH4Cl buffer with NH4Cl-free buffer (133.8 mM choline chloride, 4.7 mM KCl, 1.25 mM CaCl2, 1.25 mM MgCl2, 0.97 mM K2HPO4, 0.23 mM KH2PO4, 5 mM Hepes, 5 mM glucose, a pH of 7.4 was adjusted with 1 M KOH). After the washing step, 90 μl of the NH4Cl-free buffer were left on the cells. The pH recovery was started by adding 90 μl of Na^+-containing buffer (133.8 mM NaCl, 4.7 mM KCl, 1.25 mM CaCl2, 1.25 mM MgCl2, 0.97 mM Na2HPO4, 0.23 mM NaH2PO4, 10 mM Hepes, 5 mM glucose, a pH of 7.4 was adjusted with 1 M NaOH) in a measuring instrument (FLIPR, “Fluorometric Imaging Plate Reader”, Molecular Devices, Sunnyvale, Calif., USA). The BCECF fluorescence was determined with an excitation wavelength of 498 nm and the FLIPR emission filter 1 (bandpass from 510 to 570 nm). The subsequent changes in fluorescence as a measure of pH recovery were recorded for two minutes. To calculate the NHE3-inhibitory power of the tested substances, the cells were initially investigated in buffers with which complete or absolutely no pH recovery took place. For complete pH recovery (100%), the cells were incubated in Na^+-containing buffer (see above), and to determine the 0% value were incubated in Na^+-free buffer (see above). The substances to be tested were made up in Na^+-containing buffer. The recovery of the intracellular pH at each tested concentration of a substance was expressed as percent of the maximum recovery.
# The IC50 of the respective substance for NHE3 was calculated from the percentages of pH recovery using the program XLFit (idbs, Surrey, UK).
SMILES,IC50 [µM],inhibition at 10 µM [%]
"CS(=O)(=O)c1ccc(OC2c3ccccc3CC2N2CCC[C@@H](N)C2)c(Cl)c1Cl (mixture of isomers) [Example 31, (R)-1-[rac-trans-(1,2)-1-(2,3-dichloro-4-methanesulfonylphenoxy)indan-2-yl]piperidin-3-ylamine]",< 1,–
"CS(=O)(=O)c1cc(Cl)c(O[C@H]2c3ccccc3C[C@@H]2N2CCCC2)c(Cl)c1 (racemic) [Example 264, 1-[rac-trans-(1,2)-1-(2,6-dichloro-4-methanesulfonylphenoxy)indan-2-yl]pyrrolidine]",1 to 10,–
"O=C1OCCN1c1ccc(O[C@H]2c3cc(Cl)cc(Cl)c3C[C@@H]2N2CC[C@@H](O)C2)cc1 [Example 429, 3-{4-[trans-(1S,2S)-4,6-dichloro-2-((R)-3-hydroxypyrrolidin-1-yl)indan-1-yloxy]phenyl}oxazolidin-2-one]",1 to 10,–
"N[C@H]1CCCN([C@H]2CCc3ccccc3[C@@H]2Oc2cccc3[nH]nnc23)C1 (racemic) [Example 147, (S)-1-[rac-trans-(1,2)-1-(1H-benzotriazol-4-yloxy)-1,2,3,4-tetrahydronaphthalen-2-yl]piperidin-3-ylamine]",< 1,–
"Cc1nnc(C)n1-c1ccc(O[C@H]2c3cc(Cl)cc(Cl)c3C[C@@H]2N2CC[C@@H](C#N)C2)cc1 [Example 134, (R)-1-{trans-(1S,2S)-4,6-dichloro-1-[4-(3,5-dimethyl-[1,2,4]triazol-4-yl)phenoxy]indan-2-yl}pyrrolidine-3-carbonitrile]",< 1,–
"c1ccc2c(c1)CC[C@H](N1CCOCC1)[C@H]2Oc1ccc2ccncc2c1 (racemic) [Example 588, 7-(rac-trans-(1,2)-2-morpholin-4-yl-1,2,3,4-tetrahydronaphthalen-1-yloxy)isoquinoline]",–,20 to 50
"CC(=O)Nc1cccc(O[C@@H]2c3ccccc3C[C@H]2N2CCC[C@@H](N)C2)c1 (racemic) [Example 679, N-{3-[rac-trans-(1,2)-2-((R)-3-aminopiperidin-1-yl)indan-1-yloxy]phenyl}acetamide]",< 1,–
"CN(C)S(=O)(=O)c1ccc(OC2c3ccccc3CC2N2CCC[C@@H](N)C2)c(Cl)c1Cl (mixture of isomers) [Example 520, 4-[rac-trans-(1,2)-2-((R)-3-aminopiperidin-1-yl)indan-1-yloxy]-2,3-dichloro-N,N-dimethylbenzenesulfonamide]",< 1,–
"NS(=O)(=O)c1ccc(O[C@H]2c3cc(Cl)ccc3C[C@@H]2N2CCCC2)cc1 (racemic) [Example 473, 4-(rac-trans-(1,2)-6-chloro-2-pyrrolidin-1-ylindan-1-yloxy)benzenesulfonamide]",< 1,–
